Data on 4 compounds can be found in article PMC8889123 (International journal for parasitology, 2019).

The target in the test is T1, Ser/Thr protein phosphatase 5 (PbPP5) (Plasmodium berghei, UniProt A0A509AMH5).
T1 sequence (A0A509AMH5 407-711): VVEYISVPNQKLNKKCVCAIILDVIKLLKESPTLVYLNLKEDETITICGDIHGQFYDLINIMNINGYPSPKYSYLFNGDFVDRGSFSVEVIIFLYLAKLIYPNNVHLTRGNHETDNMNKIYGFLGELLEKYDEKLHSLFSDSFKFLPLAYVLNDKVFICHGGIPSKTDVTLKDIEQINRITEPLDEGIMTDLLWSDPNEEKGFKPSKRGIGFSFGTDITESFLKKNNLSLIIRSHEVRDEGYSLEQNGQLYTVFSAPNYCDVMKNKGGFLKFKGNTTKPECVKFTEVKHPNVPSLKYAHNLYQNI
Type of test: biochemical.
A word on the IC50: it is the midpoint of a concentration-inhibition curve. In turn, `C[C@]1(C(=O)O)[C@@H]2CC[C@@H](O2)[C@@]1(C)C(=O)O` [cantharidic acid] yielded an IC50 of 122 nM.
Take `C[C@@]12C(=O)OC(=O)[C@]1(C)[C@H]1CC[C@@H]2O1` [cantharidin]: inhibition was half-maximal at 74.3 nM (IC50).
`O=C(O)[C@@H]1[C@H](C(=O)O)[C@H]2CC[C@@H]1O2` [endothall] returned an IC50 of 365 nM.
With `C=C1[C@@H](O)[C@@H]2O[C@]3(CC[C@H](/C=C/[C@@H](C)[C@@H]4CC(C)=C[C@@]5(O[C@H](C[C@@](C)(O)C(=O)O)CC[C@H]5O)O4)O3)CC[C@H]2O[C@@H]1[C@@H](O)C[C@H](C)[C@H]1O[C@@]2(CCCCO2)CC[C@H]1C` [okadaic acid], the IC50 was 1.3 nM.
